Measured values published in ChEMBL document CHEMBL1201862, “PubChem BioAssay data set” (2004).
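The compound was tested at five concentrations on cells cultured in 96-well plates, with a 48-hour exposure period. GI50 = concentration required for 50% inhibition of growth.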 Active and inactive are the calls of the source. No stated cut-off is given here; in the data, active = GI50 up to about 1.1 µM and inactive = higher.

Experiments:
Assay in all cases: NCI-60 cell line screen, 48 h
SR = test system: SR
RXF 393 = test system: RXF 393
A498 = test system: A498
MCF7 = test system: MCF7
SNB-75 = test system: SNB-75
MDA-MB-231 = test system: MDA-MB-231
COLO 205 = test system: COLO 205
OVCAR-3 = test system: OVCAR-3
KM12 = test system: KM12
HT-29 = test system: HT-29
HOP-62 = test system: HOP-62
HL-60 = test system: HL-60
CAKI-1 = test system: CAKI-1
SF-539 = test system: SF-539
SF-268 = test system: SF-268
SF-295 = test system: SF-295
MDA-N = test system: MDA-N
MOLT-4 = test system: MOLT-4
RPMI-8226 = test system: RPMI-8226
T47D = test system: T47D
K562 = test system: K562
UO-31 = test system: UO-31
CCRF-CEM = test system: CCRF-CEM
SK-MEL-5 = test system: SK-MEL-5
MDA-MB-435 = test system: MDA-MB-435
OVCAR-4 = test system: OVCAR-4
HCT-116 = test system: HCT-116
BT-549 = test system: BT-549
HOP-92 = test system: HOP-92
SK-MEL-28 = test system: SK-MEL-28
SNB-19 = test system: SNB-19
U-251 = test system: U-251
TK-10 = test system: TK-10
NCI-H23 = test system: NCI-H23
LOX IMVI = test system: LOX IMVI
PC-3 = test system: PC-3
DU-145 = test system: DU-145
NCI-H460 = test system: NCI-H460
NCI/ADR-RES = test system: NCI/ADR-RES
SN12C = test system: SN12C
HCC 2998 = test system: HCC 2998
UACC-257 = test system: UACC-257
A549 = test system: A549
OVCAR-8 = test system: OVCAR-8
M14 = test system: M14
SK-OV-3 = test system: SK-OV-3
Hs-578T = test system: Hs-578T
UACC-62 = test system: UACC-62
OVCAR-5 = test system: OVCAR-5
SW-620 = test system: SW-620
786-0 = test system: 786-0
HCT-15 = test system: HCT-15
SK-MEL-2 = test system: SK-MEL-2
EKVX = test system: EKVX
NCI-H522 = test system: NCI-H522
NCI-H226 = test system: NCI-H226
IGROV-1 = test system: IGROV-1
Malme-3M = test system: Malme-3M
ACHN = test system: ACHN

c1ccc(C2SCC3=Nc4ccccc4CN32)cc1 (centres undefined)
GI50 (SR): 31.4 µM (inactive)
GI50 (RXF 393): 10.8 µM (inactive)
GI50 (A498): > 100 µM (inactive)
GI50 (MCF7): 26.9 µM (inactive)
GI50 (SNB-75): 30.5 µM (inactive)
GI50 (MDA-MB-231): > 100 µM (inactive)
GI50 (COLO 205): 19.4 µM (inactive)
GI50 (OVCAR-3): 0.78 µM (active)
GI50 (KM12): 43.5 µM (inactive)
GI50 (HT-29): 17.8 µM (inactive)
GI50 (HOP-62): 26.1 µM (inactive)
GI50 (HL-60): 23.6 µM (inactive)
GI50 (CAKI-1): > 100 µM (inactive)
GI50 (SF-539): 28.4 µM (inactive)
GI50 (SF-268): 78.5 µM (inactive)
GI50 (SF-295): 14.7 µM (inactive)
GI50 (MDA-N): 87.7 µM (inactive)
GI50 (MOLT-4): 34.7 µM (inactive)
GI50 (RPMI-8226): 39.8 µM (inactive)
GI50 (T47D): 25.8 µM (inactive)
GI50 (K562): 33.5 µM (inactive)
GI50 (UO-31): 29.9 µM (inactive)
GI50 (CCRF-CEM): 34.2 µM (inactive)
GI50 (SK-MEL-5): 14.4 µM (inactive)
GI50 (MDA-MB-435): 29.7 µM (inactive)
GI50 (OVCAR-4): 78.2 µM (inactive)
GI50 (HCT-116): 14.8 µM (inactive)
GI50 (BT-549): > 100 µM (inactive)
GI50 (HOP-92): 50.8 µM (inactive)
GI50 (SK-MEL-28): 50.4 µM (inactive)
GI50 (SNB-19): 13.4 µM (inactive)
GI50 (U-251): 63 µM (inactive)
GI50 (TK-10): 75.2 µM (inactive)
GI50 (NCI-H23): 16.6 µM (inactive)
GI50 (LOX IMVI): 36 µM (inactive)
GI50 (PC-3): 25.9 µM (inactive)
GI50 (DU-145): 24.9 µM (inactive)
GI50 (NCI-H460): 54 µM (inactive)
GI50 (NCI/ADR-RES): 17.5 µM (inactive)
GI50 (SN12C): > 100 µM (inactive)
GI50 (HCC 2998): 61.7 µM (inactive)
GI50 (UACC-257): 94.6 µM (inactive)
GI50 (A549): 53.8 µM (inactive)
GI50 (OVCAR-8): 18.2 µM (inactive)
GI50 (M14): 31 µM (inactive)
GI50 (SK-OV-3): 23.4 µM (inactive)
GI50 (Hs-578T): 73.8 µM (inactive)
GI50 (UACC-62): 60.1 µM (inactive)
GI50 (OVCAR-5): 25.8 µM (inactive)
GI50 (SW-620): 87.5 µM (inactive)
GI50 (786-0): 21.3 µM (inactive)
GI50 (HCT-15): 51.4 µM

N#CC1=C(N)N(c2ccccc2)C(c2ccco2)C1(C#N)C#N (centres undefined)
GI50 (SK-MEL-2): 27.5 µM (inactive)
GI50 (SR): 20.5 µM (inactive)
GI50 (EKVX): 20 µM (inactive)
GI50 (RXF 393): 17.5 µM (inactive)
GI50 (A498): 21.8 µM (inactive)
GI50 (MCF7): 17.4 µM (inactive)
GI50 (SNB-75): 20 µM (inactive)
GI50 (MDA-MB-231): 15.3 µM (inactive)
GI50 (COLO 205): 19.4 µM (inactive)
GI50 (OVCAR-3): 19 µM (inactive)
GI50 (KM12): 17.4 µM (inactive)
GI50 (NCI-H522): 16.7 µM (inactive)
GI50 (HT-29): 20 µM (inactive)
GI50 (HOP-62): 21.8 µM (inactive)
GI50 (HL-60): 17.5 µM (inactive)
GI50 (CAKI-1): 30.6 µM (inactive)
GI50 (SF-539): 19.3 µM (inactive)
GI50 (SF-268): 34.7 µM (inactive)
GI50 (SF-295): 28.4 µM (inactive)
GI50 (MDA-N): 27.8 µM (inactive)
GI50 (MOLT-4): 25.5 µM (inactive)
GI50 (RPMI-8226): 19.4 µM (inactive)
GI50 (T47D): 15.2 µM (inactive)
GI50 (K562): 6.58 µM (inactive)
GI50 (UO-31): 18.7 µM (inactive)
GI50 (CCRF-CEM): 14.3 µM (inactive)
GI50 (SK-MEL-5): 17.4 µM (inactive)
GI50 (MDA-MB-435): 28.4 µM (inactive)
GI50 (NCI-H226): 18 µM (inactive)
GI50 (IGROV-1): 19.2 µM (inactive)
GI50 (OVCAR-4): 21.3 µM (inactive)
GI50 (HCT-116): 28.5 µM (inactive)
GI50 (BT-549): 18.8 µM (inactive)
GI50 (SK-MEL-28): 17.9 µM (inactive)
GI50 (SNB-19): 26.9 µM (inactive)
GI50 (U-251): 21.8 µM (inactive)
GI50 (TK-10): 16.4 µM (inactive)
GI50 (NCI-H23): 19.9 µM (inactive)
GI50 (LOX IMVI): 16.7 µM (inactive)
GI50 (PC-3): 27.4 µM (inactive)
GI50 (DU-145): 19.4 µM (inactive)
GI50 (Malme-3M): 22.9 µM (inactive)
GI50 (NCI/ADR-RES): 27 µM (inactive)
GI50 (SN12C): 30.3 µM (inactive)
GI50 (HCC 2998): 16.4 µM (inactive)
GI50 (UACC-257): 18.4 µM (inactive)
GI50 (A549): 38.2 µM (inactive)
GI50 (OVCAR-8): 23.3 µM (inactive)
GI50 (M14): 20.6 µM (inactive)
GI50 (SK-OV-3): 77.8 µM (inactive)
GI50 (Hs-578T): 36.6 µM (inactive)
GI50 (UACC-62): 23.2 µM (inactive)
GI50 (OVCAR-5): 22.9 µM (inactive)
GI50 (ACHN): 16.7 µM (inactive)
GI50 (SW-620): 17.9 µM (inactive)
GI50 (786-0): 17.5 µM (inactive)
GI50 (HCT-15): 18.3 µM
